System: responder cells (T lymphocytes)
Assay: Mixed lymphocytes reaction ([3H]-thymidine uptake of responder cells)
Type: cell-based, human
Conditions: test substance at 2.5, 5, 10, 25 μg/mL (Nos. 1-6) or 5, 10, 25 μg/mL (Nos. 7-12); 4 days culture with mitomycin C-treated stimulator cells; FIGS. 1 and 2
Description: Mixed lymphocytes reaction
Lymphocytes serving as stimulator cells and responder cells were prepared from blood taken from individual healthy persons.
The responder cells were further separated from the lymphocyte cells to give T lymphocytes alone.
No treatment was applied to the responder cells. 10^6/mL of the stimulator cells were treated with 10 μg/mL of mitomycin C to stop the cell growth.
Subsequently, the responder cells were inoculated in a 96-well plate, at a rate of 10^5 cells per well, and then test substances (compound Nos. 1 to 12 listed in Table 1 below) were added to a predetermined concentration. The reaction mixture was cultured at 37° C. for one hour. Thereafter, the stimulator cells were added at a rate of 10^5 cells per well. The mixture was cultured in a CO2 incubator at 37° C. for 4 days. After the incubation, the proliferation ability of the responder cells was quantified as follows. First, [^3H]-thymidine was added to the responder cells and incorporated into the nucleus of the cells by culturing the cells for 16 hours. Then, the amount of [^3H]-thymidine uptake into the cells was determined by a scintillation counter.

In the case of CCCCCCCCCCCCCCCCCC(=O)OCC(CO[C@@H]1O[C@H](CS(=O)(=O)[O-])[C@H](O)[C@H](O)[C@H]1O)OC(=O)CCCCCCCCCCCCCCCCC.[Na+] (stereo partly drawn) [compound No. 12, 3-0-(6-deoxy-6-sulfo-β-D-galactopyranosyl)-1,2-di-0-stearoyl-glycerol sodium salt], the “immunosuppressive activity (amount of [3H]-thymidine uptake; the lower the uptake, the higher the activity)” value is reported as “not confirmed”.
